Experimental data reported in patent US9791447B2, “Methods of identifying SENP1 inhibitors” (City of Hope, priority 2013, dated 2017).

Experiments:
HeLa cells = experiment: Cellular SENP inhibition: SUMOylated proteins in HeLa cells by Western blot; conditions: increasing concentrations, 48 hours
SENP1 [1] = target: T1, SENP1 (Homo sapiens (Human), UniProt Q9P0U3); experiment: SUMO cleavage assay (gel-based), SENP1, SUMO-1 precursor YSE substrate; format: biochemical; conditions: cleavage of SUMO-1 precursor (YSE), read-out: IC50 (μM)-SUMO1 SENP1
T1 sequence (Q9P0U3 419-644): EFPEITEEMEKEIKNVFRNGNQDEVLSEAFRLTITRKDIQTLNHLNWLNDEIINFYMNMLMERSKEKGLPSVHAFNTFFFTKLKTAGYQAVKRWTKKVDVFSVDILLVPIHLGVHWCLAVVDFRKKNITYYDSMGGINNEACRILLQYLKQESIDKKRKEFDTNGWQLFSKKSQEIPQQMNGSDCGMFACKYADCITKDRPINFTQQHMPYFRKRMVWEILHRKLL

SENP2 [2] = target: T2, SENP2 (Homo sapiens (Human), UniProt Q9HC62); experiment: SUMO cleavage assay (gel-based), SENP2, SUMO-1 precursor YSE substrate; format: biochemical; conditions: cleavage of SUMO-1 precursor (YSE), read-out: IC50 (μM)-SUMO1 SENP2
T2 sequence (Q9HC62 364-589): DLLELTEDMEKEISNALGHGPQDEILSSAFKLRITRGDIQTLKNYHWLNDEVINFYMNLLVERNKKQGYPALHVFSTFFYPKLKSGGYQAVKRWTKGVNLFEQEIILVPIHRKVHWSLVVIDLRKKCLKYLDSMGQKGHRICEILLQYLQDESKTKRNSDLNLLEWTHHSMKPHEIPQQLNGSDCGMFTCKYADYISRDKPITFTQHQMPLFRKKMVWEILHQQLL

SENP1 [3] = target: T1, SENP1; experiment: SUMO cleavage assay (gel-based), SENP1, SUMO-2 precursor YSE substrate; format: biochemical
SENP2 [4] = target: T2, SENP2; experiment: SUMO cleavage assay (gel-based), SENP2, SUMO-2 precursor YSE substrate; format: biochemical; conditions: cleavage of SUMO-2 precursor (YSE), read-out: IC50 (μM)-SUMO2 SENP2
SENP1 [5] = target: T1, SENP1; experiment: DUB-Glo bioluminescent assay, SENP1; format: biochemical; conditions: DUB-Glo substrate
Experimental: (§1) In 96-well plates, SENPs (50-200 nM) were pre-treated with increasing concentrations of each compound, after which DUB-Glo (40 μM final concentration; Promega, Madison, Wis.) was added as substrate. Experiments were performed in triplicate. The amount of cleaved product is proportional to the relative light unit (RLU), which is bioluminescence produced by luciferase catalyzed reaction of luciferin that was produced by SENP cleavage of DUB-Glo.
(§2) To determine whether other SENPs can be inhibited by this family of inhibitors, a distant SENP member, SENP7, was tested in parallel with SENP1 and SENP2 using a pentapeptide substrate that contained the Gly-Gly motif and luciferin, known as DUB-Glo (Promega, Madison, Wis.). Cleavage of luciferin by a SENP can be detected by a coupled bioluminescent assay using luciferase. The bioluminescent reporter was chosen instead of a fluorescent reporter to avoid interference by the compounds during detection.
(§3) DUB-Glo Assay. The luciferase substrate assay (DUB-Glo, Promega, Madison, Wis.) was performed according to the manufacturer's instructions. […] Luciferase output was recorded 30 min after addition of the luciferase substrate. […]

SENP2 [6] = target: T2, SENP2; experiment: DUB-Glo bioluminescent assay, SENP2; format: biochemical; conditions: DUB-Glo substrate
Experimental: as §1, §2, §3

SENP7 = SENP7 (Homo sapiens (Human), UniProt Q9BQF6); experiment: DUB-Glo bioluminescent assay, SENP7; format: biochemical; conditions: DUB-Glo substrate
SENP7, sequence (Q9BQF6 760-1050): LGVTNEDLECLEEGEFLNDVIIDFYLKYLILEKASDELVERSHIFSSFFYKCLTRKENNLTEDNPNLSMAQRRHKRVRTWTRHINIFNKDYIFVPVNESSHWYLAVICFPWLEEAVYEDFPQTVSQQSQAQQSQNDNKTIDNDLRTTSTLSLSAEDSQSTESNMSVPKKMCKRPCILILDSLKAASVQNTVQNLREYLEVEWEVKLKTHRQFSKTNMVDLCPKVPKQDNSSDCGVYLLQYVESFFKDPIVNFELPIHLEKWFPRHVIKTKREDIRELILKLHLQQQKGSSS
Experimental: as §1, §2
DUB-Glo Assay. The luciferase substrate assay (DUB-Glo, Promega, Madison, Wis.) was performed according to the manufacturer's instructions. Briefly, SENPs (final concentration 50-100 nM) in Tris buffer (50 mM Tris, pH 8.0, 100 mM NaCl, 10 mM DTT) were pre-incubated (10 min, room temperature) with increasing concentrations of inhibitor (0-60 μM final concentration) followed by addition of the luciferase substrate. Luciferase output was recorded 30 min after addition of the luciferase substrate. Values are the averages of experiments performed in triplicate.

Nc1ccc2ccccc2c1/N=N/c1ccc(/C=C/c2ccc(/N=N/c3c(N)ccc4ccccc34)cc2S(=O)(=O)O)c(S(=O)(=O)O)c1 [SPI-01]
accumulation of SUMO-1 conjugates (HeLa cells): less significant effects on the accumulation of SUMO-1 conjugates | accumulation of SUMO-2/3 conjugates (HeLa cells): SUMO-2/3 conjugates accumulated in cells

Cc1cc(N)ccc1/N=N/c1cc(S(=O)(=O)O)c2cccc(S(=O)(=O)O)c2c1.[Na+].[Na+] [SPI-07]
IC50 (SENP1 [1]): > 60 µM | IC50 (SENP2 [2]): > 60 µM | IC50 (SENP1 [3]; cleavage of SUMO-2 precursor (YSE), gel-based, read-out: IC50 (μM)-SUMO2 SENP1): 17.5 ± 4.9 µM | potency for inhibiting SENP1 compared with SENP2 (SENP1 [3]; cleavage of the SUMO-2 precursor): more potent for inhibiting SENP1 than SENP2 | IC50 (SENP2 [4]): 28.1 ± 9.2 µM | IC50 (SENP1 [5]): > 60 µM | IC50 (SENP2 [6]): > 60 µM | IC50 (SENP7): 1900 ± 2200 nM

Nc1c(/N=N/c2ccccc2)cc(S(=O)(=O)O)c2ccccc12 [SPI-08]
IC50 (SENP7): 2800 ± 1600 nM

Nc1ccc2cc(S(=O)(=O)O)cc(S(=O)(=O)O)c2c1/N=N/c1ccc(S(=O)(=O)O)cc1 [SPI-09]
IC50 (SENP7): 1900 ± 2100 nM
